Experimental findings from patent US9458196B2, “Synthetic peptides capable of binding to influenza hemagglutinin protein” (priority 2012, dated 2016) are described below.

The subject of the assay is HA proteins from five different viral strains H1N1, H5N1, H9N2, H3N2 and H14N5. The class given is biochemical, influenza virus.
Turning to KEFSEVEGR [PF41], the “ability to block pH triggered shape changes / low pH induced association of HA proteins” value is “ability to block pH triggered shape changes”. Next, KEFNNLEKR [PF42]: “ability to block pH triggered shape changes”; TKRSQQTVIP [PF31]: “ability to block pH triggered shape changes”. Turning to PYDVPDYA [PF12], the “ability to block pH triggered shape changes / low pH induced association of HA proteins” value is “ability to block pH triggered shape changes”. In the case of TSRSQQTVIP [PF32] it was “ability to block pH triggered shape changes”; in that of PGDFNDYE [PF13], “ability to block pH triggered shape changes”; in that of PYDVPDYE [PF11], “ability to block pH triggered shape changes”. Next, AERPKVRGQAGRMN [LPF54]: “ability to block pH triggered shape changes”.
